Read-outs that look alike come from different tables or passages of the source. Numbered stars: 1 amine (or outer) side, 2 acyl side, 3 side chain; on linkers, the order of the positions; unused ones are H or OH. Square brackets hold non-standard residues; d marks the D form. Peptide text beside a SMILES is read from it. * marks the point of attachment. 5FAM = O=C1OC2(c3ccc(O)cc3Oc3cc(O)ccc32)c2ccc(C(=O)*)cc21; NHCH2C6H4(4-CH2CONH2) = NC(=O)Cc1ccc(CN*)cc1; X1 = O=C(Cc1ccc(CN[*:1])cc1)[*:2]
Target: T1, IL-6R (Homo sapiens, UniProt P08887)
T1 construct: purchased Creative Biomart IL6R-584H
T1 sequence (P08887 20-355 limits assumed): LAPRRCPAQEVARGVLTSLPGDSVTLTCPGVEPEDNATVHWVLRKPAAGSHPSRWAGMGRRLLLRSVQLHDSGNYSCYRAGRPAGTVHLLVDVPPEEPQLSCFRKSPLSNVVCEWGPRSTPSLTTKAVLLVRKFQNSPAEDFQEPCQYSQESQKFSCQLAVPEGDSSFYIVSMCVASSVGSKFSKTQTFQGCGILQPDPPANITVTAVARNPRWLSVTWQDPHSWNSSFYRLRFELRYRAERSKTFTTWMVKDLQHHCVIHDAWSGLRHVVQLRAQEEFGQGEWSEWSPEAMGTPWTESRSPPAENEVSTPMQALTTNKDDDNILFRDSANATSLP
Assay: MST binding affinity of resynthesized NNP hits to IL-6R
Procedure: Hit binding affinity to various targets were determined using Microscale Thermophoresis (MST). MST experiments were performed on a Monolith NT.115pico (NanoTemper Technologies GmbH, Munich, Germany). Measurements were performed at room temperature, in triplicate with incubation periods of 15, 30 and 45 minutes. […] Targets were labeled using Nanotemper Monolith 2nd Generation Protein Labeling Kits. RED-MALEIMIDE (Maleimide-647-dye) labeling kit was used for K-Ras and RED-NHS (NHS-647-dye) labeling kit was used for IL-6, IL-6R, TNFα and ASGPR. The buffer for the ASGPR contained 20 mM HEPES pH 7.4, 150 mM NaCl, 10 mM MgCl2, 2 mM CaCl2, 0.05% Pluronic F-127, and 1 mM DTT; for IL-6 contained 20 mM HEPES pH 7.4, 150 mM KCl, 10 mM MgCl2, and 0.1% Pluronic F-127; for the soluble IL-6 receptor 20 mM HEPES pH 7.4, 150 mM NaCl, 10 mM MgCl2, and 0.05% Tween-20; for K-Ras 20 mM HEPES pH 7.4, 150 mM NaCl, 10 mM MgCl2, 0.05% Tween-20 and 1 mM DTT; for TNFα 10 mM HEPES pH 7.4, 150 mM NaCl, 10 mM MgCl2, 0.05% Polysorbate-20. Triplicate data was analyzed using MO.AffinityAnalysis software (NanoTemper Technologies GmbH).

[1] = read-out: MST (microscale thermophoresis) KD (nM) [95% conf. int], IL-6R, ester versus amide amino acid-PAM bond polymers, library NNP2

SMILES | Kd [1] | also measured
CC(C)C[C@H](NC(=O)[C@@H](CCCNC(=N)N)NC(=O)[C@@H](C)NC(=O)Cc1ccc(CNC(=O)[C@H](Cc2ccccc2)NC(=O)[C@@H](CCC(=O)O)NC(=O)[C@H]2CCCN2C(=O)Cc2ccc(CNC(=O)[C@H](Cc3ccccc3)NC(=O)[C@@H](CCCCN)NC(=O)[C@@H](C)NC(=O)Cc3ccc(CNC(=O)[C@H](CC(C)C)NC(=O)[C@@H](CCCNC(=N)N)NC(=O)[C@@H](Cc4c[nH]c5ccccc45)NC(=O)Cc4ccc(CNC(=O)[C@H](C)NC(=O)[C@@H](CCCCN)NC(=O)[C@H]5CCCN5C(=O)Cc5ccc(CNC(=O)[C@@H](NC(=O)[C@@H](CC(N)=O)NC(=O)[C@H]6CCCN6C(=O)Cc6ccc(CNC(=O)[C@H](Cc7ccccc7)NC(=O)[C@@H](Cc7c[nH]c8ccccc78)NC(=O)[C@@H](CCCNC(=N)N)NC(=O)c7ccc8c(c7)C(=O)OC87c8ccc(O)cc8Oc8cc(O)ccc87)cc6)C(C)C)cc5)cc4)cc3)cc2)cc1)C(=O)NCc1ccc(CC(=O)N[C@H](Cc2c[nH]c3ccccc23)C(=O)N[C@H](CCCCN)C(=O)N[C@@H](CC(C)C)C(=O)NCc2ccc(CC(=O)N[C@H](Cc3ccccc3)C(=O)N[C@H](CCCCN)C(=O)NCC(=O)NCc3ccc(CC(N)=O)cc3)cc2)cc1 [IL6R-87-6, Fluorescein-(D)Arg-(D)Trp-(L)Phe-PAM-(D)Pro-(D)Asn-(L)Val-PAM-(D)Pro-(D)Lys-(L)Ala-PAM-(D)Trp-(D)Arg-(L)Leu-PAM-(D)Ala-(D)Lys-(L)Phe-PAM-(D)Pro-(D)Glu-(L)Phe-PAM-(D)Ala-(D)Arg- (L)Leu-PAM-(D)Trp-(D)Lys-(L)Leu-PAM-(D)Phe-(D)Lys-Gly-PAM] (5FAM-[dR][dW]F[X1][dP][dN]V[X1][dP][dK]A[X1][dW][dR]L[X1][dA][dK]F[X1][dP][dE]F[X1][dA][dR]L[X1][dW][dK]L[X1][dF][dK]G-{NHCH2C6H4(4-CH2CONH2)}) |  | Kd (MST, NNP2 library hit, target SIL-6R, one-site binding model): 3.3 nM
CC(C)C[C@H](NC(=O)[C@@H](CCCNC(=N)N)NC(=O)[C@@H](C)NC(=O)Cc1ccc(CNC(=O)[C@H](Cc2ccccc2)NC(=O)[C@@H](CCCNC(=N)N)NC(=O)[C@@H](CC(N)=O)NC(=O)Cc2ccc(CNC(=O)[C@H](Cc3ccccc3)NC(=O)[C@@H](CCCCN)NC(=O)[C@@H](C)NC(=O)Cc3ccc(CNC(=O)[C@H](CC(C)C)NC(=O)[C@@H](CCC(=O)O)NC(=O)[C@@H](CCCCN)NC(=O)Cc4ccc(CNC(=O)[C@@H](NC(=O)[C@@H](CCC(=O)O)NC(=O)[C@@H](Cc5ccccc5)NC(=O)Cc5ccc(CNC(=O)[C@H](CC(C)C)NC(=O)[C@@H](CCCNC(=N)N)NC(=O)[C@@H](CC(C)C)NC(=O)Cc6ccc(CNC(=O)[C@H](Cc7ccccc7)NC(=O)[C@@H](Cc7c[nH]c8ccccc78)NC(=O)[C@@H](CCCNC(=N)N)NC(=O)c7ccc8c(c7)C(=O)OC87c8ccc(O)cc8Oc8cc(O)ccc87)cc6)cc5)C(C)C)cc4)cc3)cc2)cc1)C(=O)NCc1ccc(CC(=O)N[C@H](Cc2c[nH]c3ccccc23)C(=O)N[C@H](CCCCN)C(=O)N[C@@H](CC(C)C)C(=O)NCc2ccc(CC(=O)N[C@H](C)C(=O)N[C@@H](C(=O)N[C@@H](CC(C)C)C(=O)NCc3ccc(CC(N)=O)cc3)C(C)C)cc2)cc1 [IL6R-87-10, Fluorescein-(D)Arg-(D)Trp-(L)Phe-PAM-(D)Leu-(D)Arg-(L)Leu-PAM-(D)Phe-(D)Glu-(L)Val-PAM-(D)Lys-(D)Glu-(L)Leu-PAM-(D)Ala-(D)Lys-(L)Phe-PAM-(D)Asn-(D)Arg-(L)Phe-PAM-(D)Ala-(D)Arg- (L)Leu-PAM-(D)Trp-(D)Lys-(L)Leu-PAM-(D)Ala-(D)Val-(L)Leu-PAM] (5FAM-[dR][dW]F[X1][dL][dR]L[X1][dF][dE]V[X1][dK][dE]L[X1][dA][dK]F[X1][dN][dR]F[X1][dA][dR]L[X1][dW][dK]L[X1][dA][dV]L-{NHCH2C6H4(4-CH2CONH2)}) |  | Kd (IL-6R, ester versus amide amino acid-PAM bond polymers, library NNP2): 20 nM
CC(C)C[C@H](NC(=O)[C@@H](CCCNC(=N)N)NC(=O)[C@@H](C)NC(=O)Cc1ccc(COC(=O)[C@H](CC(C)C)NC(=O)[C@@H](CCCNC(=N)N)NC(=O)[C@@H](CCC(=O)O)NC(=O)Cc2ccc(COC(=O)[C@H](C)NC(=O)[C@@H](CCCCN)NC(=O)[C@@H](Cc3ccc(O)cc3)NC(=O)Cc3ccc(COC(=O)[C@H](C)NC(=O)[C@@H](CCCNC(=N)N)NC(=O)[C@@H](Cc4ccccc4)NC(=O)Cc4ccc(COC(=O)[C@H](Cc5ccccc5)NC(=O)[C@@H](CO)NC(=O)[C@@H](CCCNC(=N)N)NC(=O)Cc5ccc(COC(=O)[C@@H](NC(=O)[C@@H](CO)NC(=O)[C@@H](Cc6ccc(O)cc6)NC(=O)Cc6ccc(COC(=O)[C@H](Cc7ccccc7)NC(=O)[C@H](NC(=O)[C@@H](CC(N)=O)NC(=O)c7ccc8c(c7)C(=O)OC87c8ccc(O)cc8Oc8cc(O)ccc87)C(C)C)cc6)C(C)C)cc5)cc4)cc3)cc2)cc1)C(=O)OCc1ccc(CC(=O)N2CCC[C@@H]2C(=O)N[C@H](CCCNC(=N)N)C(=O)N[C@@H](C)C(=O)OCc2ccc(CC(=O)N[C@H](Cc3ccccc3)C(=O)N[C@H](CCCCN)C(=O)NCC(=O)OCc3ccc(CC(N)=O)cc3)cc2)cc1 [IL6R-93-12] | 3.7 nM | 
CC(C)C[C@H](NC(=O)[C@@H](CCCNC(=N)N)NC(=O)[C@@H](C)NC(=O)Cc1ccc(COC(=O)[C@H](Cc2ccccc2)NC(=O)[C@@H](CCCNC(=N)N)NC(=O)[C@@H](CC(N)=O)NC(=O)Cc2ccc(COC(=O)[C@H](Cc3ccccc3)NC(=O)[C@@H](CCCCN)NC(=O)[C@@H](C)NC(=O)Cc3ccc(COC(=O)[C@H](CC(C)C)NC(=O)[C@@H](CCC(=O)O)NC(=O)[C@@H](CCCCN)NC(=O)Cc4ccc(COC(=O)[C@@H](NC(=O)[C@@H](CCC(=O)O)NC(=O)[C@@H](Cc5ccccc5)NC(=O)Cc5ccc(COC(=O)[C@H](CC(C)C)NC(=O)[C@@H](CCCNC(=N)N)NC(=O)[C@@H](CC(C)C)NC(=O)Cc6ccc(COC(=O)[C@H](Cc7ccccc7)NC(=O)[C@@H](Cc7c[nH]c8ccccc78)NC(=O)[C@@H](CCCNC(=N)N)NC(=O)c7ccc8c(c7)C(=O)OC87c8ccc(O)cc8Oc8cc(O)ccc87)cc6)cc5)C(C)C)cc4)cc3)cc2)cc1)C(=O)OCc1ccc(CC(=O)N[C@H](Cc2c[nH]c3ccccc23)C(=O)N[C@H](CCCCN)C(=O)N[C@@H](CC(C)C)C(=O)OCc2ccc(CC(=O)N[C@H](C)C(=O)N[C@@H](C(=O)N[C@@H](CC(C)C)C(=O)OCc3ccc(CC(N)=O)cc3)C(C)C)cc2)cc1 [IL6R-93-13] | 130 nM | 

From patent US20230393140A1, “BINDING ASSAYS INVOLVING A PLURALITY OF SYNTHETIC COMPOUNDS, TARGETS, AND COUNTER TARGETS” (SRI International, priority 2020, published 2023)
